Reference: PubChem BioAssay (NCI)
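GI50 is the concentration that inhibits growth by half. TGI: concentration producing complete growth inhibition.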

Legend:
Assay in all cases: growth of human tumour cells (NCI), 384-well format
SF-268 CNS = system: SF-268 CNS
HT29 colon = system: HT29 colon
HOP-62 NSCLC = system: HOP-62 NSCLC
UACC-62 melanoma = system: UACC-62 melanoma
MALME-3M melanoma = system: MALME-3M melanoma
PC-3 prostate = system: PC-3 prostate
NCI-H23 lung = system: NCI-H23 lung
HS 578T breast = system: HS 578T breast
SK-OV-3 ovarian = system: SK-OV-3 ovarian
SK-MEL-5 melanoma = system: SK-MEL-5 melanoma
RPMI-8226 leukemia = system: RPMI-8226 leukemia
SF-539 CNS = system: SF-539 CNS
BT-549 breast = system: BT-549 breast
HL-60(TB) leukemia = system: HL-60(TB) leukemia
SN12C renal = system: SN12C renal
U251 glioblastoma = system: U251 glioblastoma
MDA-MB-435 melanoma = system: MDA-MB-435 melanoma
SW-620 colon = system: SW-620 colon
SNB-19 CNS = system: SNB-19 CNS
UO-31 renal = system: UO-31 renal
ACHN renal = system: ACHN renal
CAKI-1 renal = system: CAKI-1 renal
MDA-MB-231 breast = system: MDA-MB-231 breast
HCT-15 colon = system: HCT-15 colon
786-0 renal = system: 786-0 renal
EKVX NSCLC = system: EKVX NSCLC
K-562 leukemia = system: K-562 leukemia
UACC-257 melanoma = system: UACC-257 melanoma
HOP-92 NSCLC = system: HOP-92 NSCLC
NCI-H522 lung = system: NCI-H522 lung
MDA-MB-468 breast = system: MDA-MB-468 breast
DU-145 prostate = system: DU-145 prostate
CCRF-CEM leukemia = system: CCRF-CEM leukemia
NCI-H226 lung = system: NCI-H226 lung
RXF 393 renal = system: RXF 393 renal
OVCAR-8 ovarian = system: OVCAR-8 ovarian
T-47D breast = system: T-47D breast
NCI-H322M lung = system: NCI-H322M lung
OVCAR-3 ovarian = system: OVCAR-3 ovarian
HCC-2998 colon = system: HCC-2998 colon
SNB-75 CNS = system: SNB-75 CNS
OVCAR-5 ovarian = system: OVCAR-5 ovarian
IGROV1 ovarian = system: IGROV1 ovarian
NCI/ADR-RES ovarian = system: NCI/ADR-RES ovarian
SK-MEL-2 melanoma = system: SK-MEL-2 melanoma
SF-295 CNS = system: SF-295 CNS
SK-MEL-28 melanoma = system: SK-MEL-28 melanoma

`C[C@H](NC(=O)c1c(C(F)F)nn(C)c1Oc1cccc(C(F)(F)F)c1)c1ccc(C(=O)O)cc1` showed a GI50 (SF-268 CNS) of over 100 µM, a TGI (SF-268 CNS) of over 100 µM and a GI50 (HT29 colon) of over 100 µM. For the same compound, the TGI (HT29 colon) was over 100 µM, the GI50 (HOP-62 NSCLC) was over 100 µM and the TGI (HOP-62 NSCLC) was over 100 µM. It also gave a GI50 (UACC-62 melanoma) of over 100 µM, a TGI (UACC-62 melanoma) of over 100 µM and a GI50 (MALME-3M melanoma) of over 100 µM. It also gave a TGI (MALME-3M melanoma) of over 100 µM, a GI50 (PC-3 prostate) of over 100 µM and a TGI (PC-3 prostate) of over 100 µM. The GI50 (NCI-H23 lung) was over 100 µM, the TGI (NCI-H23 lung) was over 100 µM and the GI50 (HS 578T breast) was over 100 µM. The TGI (HS 578T breast) was over 100 µM, the GI50 (SK-OV-3 ovarian) was over 100 µM and the TGI (SK-OV-3 ovarian) was over 100 µM. It also gave a GI50 (SK-MEL-5 melanoma) of over 100 µM, a TGI (SK-MEL-5 melanoma) of over 100 µM and a GI50 (RPMI-8226 leukemia) of over 61.1 µM. For the same compound, the TGI (RPMI-8226 leukemia) was over 100 µM, the GI50 (SF-539 CNS) was over 100 µM and the TGI (SF-539 CNS) was over 100 µM. The GI50 (BT-549 breast) was over 100 µM, the TGI (BT-549 breast) was over 100 µM and the GI50 (HL-60(TB) leukemia) was over 100 µM. The TGI (HL-60(TB) leukemia) was over 100 µM, the GI50 (SN12C renal) was over 100 µM and the TGI (SN12C renal) was over 100 µM. It also gave a GI50 (U251 glioblastoma) of over 100 µM, a TGI (U251 glioblastoma) of over 100 µM and a GI50 (MDA-MB-435 melanoma) of over 100 µM. The TGI (MDA-MB-435 melanoma) was over 100 µM, the GI50 (SW-620 colon) was over 100 µM and the TGI (SW-620 colon) was over 100 µM. The GI50 (SNB-19 CNS) was over 100 µM, the TGI (SNB-19 CNS) was over 100 µM and the GI50 (UO-31 renal) was over 100 µM. It also gave a TGI (UO-31 renal) of over 100 µM, a GI50 (ACHN renal) of over 100 µM and a TGI (ACHN renal) of over 100 µM. For the same compound, the GI50 (CAKI-1 renal) was over 100 µM, the TGI (CAKI-1 renal) was over 100 µM and the GI50 (MDA-MB-231 breast) was over 100 µM. The TGI (MDA-MB-231 breast) was over 100 µM, the GI50 (HCT-15 colon) was over 100 µM and the TGI (HCT-15 colon) was over 100 µM. It also gave a GI50 ([…]-0 renal) of over 100 µM, a TGI (786-0 renal) of over 100 µM and a GI50 (EKVX NSCLC) of over 100 µM. It also gave a TGI (EKVX NSCLC) of over 100 µM, a GI50 (K-562 leukemia) of over 100 µM and a TGI (K-562 leukemia) of over 100 µM. It also gave a GI50 (UACC-257 melanoma) of over 100 µM, a TGI (UACC-257 melanoma) of over 100 µM and a GI50 (HOP-92 NSCLC) of over 100 µM. It also gave a TGI (HOP-92 NSCLC) of over 100 µM, a GI50 (NCI-H522 lung) of over 100 µM and a TGI (NCI-H522 lung) of over 100 µM. For the same compound, the GI50 (MDA-MB-468 breast) was over 100 µM, the TGI (MDA-MB-468 breast) was over 100 µM and the GI50 (DU-145 prostate) was over 100 µM. For the same compound, the TGI (DU-145 prostate) was over 100 µM, the GI50 (CCRF-CEM leukemia) was over 100 µM and the TGI (CCRF-CEM leukemia) was over 100 µM. For the same compound, the GI50 (NCI-H226 lung) was over 100 µM, the TGI (NCI-H226 lung) was over 100 µM and the GI50 (RXF 393 renal) was over 100 µM. The TGI (RXF 393 renal) was over 100 µM, the GI50 (OVCAR-8 ovarian) was over 100 µM and the TGI (OVCAR-8 ovarian) was over 100 µM. It also gave a GI50 (T-47D breast) of over 100 µM, a TGI (T-47D breast) of over 100 µM and a GI50 (NCI-H322M lung) of over 100 µM. For the same compound, the TGI (NCI-H322M lung) was over 100 µM, the GI50 (OVCAR-3 ovarian) was over 100 µM and the TGI (OVCAR-3 ovarian) was over 100 µM. For the same compound, the GI50 (HCC-2998 colon) was over 100 µM, the TGI (HCC-2998 colon) was over 100 µM and the GI50 (SNB-75 CNS) was over 100 µM. For the same compound, the TGI (SNB-75 CNS) was over 100 µM, the GI50 (OVCAR-5 ovarian) was over 100 µM and the TGI (OVCAR-5 ovarian) was over 100 µM. The GI50 (IGROV1 ovarian) was over 100 µM, the TGI (IGROV1 ovarian) was over 100 µM and the GI50 (NCI/ADR-RES ovarian) was over 100 µM. It also gave a TGI (NCI/ADR-RES ovarian) of over 100 µM, a GI50 (SK-MEL-2 melanoma) of over 100 µM and a TGI (SK-MEL-2 melanoma) of over 100 µM. The GI50 (SF-295 CNS) was over 100 µM, the TGI (SF-295 CNS) was over 100 µM and the GI50 (SK-MEL-28 melanoma) was over 100 µM. It also gave a TGI (SK-MEL-28 melanoma) of over 100 µM.
